Experimental data taken from publication PMC11062922 (Nature Chemical Biology, 2023).
Where two headings read alike, the source gives them in different places.

Columns and labels:
CSNK2A1 (CK2) = biological target: T1, CSNK2A1 (CK2) (Homo sapiens, UniProt P68400); assay: Kinobeads two-dose competition binding: CK2 (CSNK2A1)
T1 construct: endogenous in cells

ATM = biological target: T2, ATM (Homo sapiens, UniProt Q13315); assay: Kinobeads two-dose competition binding: ATM; conditions: for CATDS: target ATM
T2 construct: endogenous in cells
Excerpt: (§1) Briefly, Kinobeads comprise seven broad-spectrum small molecule kinase inhibitors immobilized on Sepharose beads. […]. Compounds of interest are set to compete for target protein binding with Kinobeads in the lysate and the amount of a given protein bound to Kinobeads in the presence of a compound can be quantified relative to a dimethylsulfoxide (DMSO) vehicle control by label-free mass spectrometry. This assay measures the physical interaction of a compound with thousands of endogenous proteins in parallel and, when systematically increasing the concentration of competitor, enables the calculation of an apparent interaction constant ( Kdapp ) for each compound and protein.
(§2) Kinobeads pulldown experiments were performed as described previously[13],[14],[17] with minor modification. […] The protein concentration was adjusted to 5 mg ml^−1. Kinase inhibitors were spiked into 0.5 ml of cell lysate at final concentrations of 100 and 1,000 nM (or DMSO, 0.3, 1, 3, 10, 30, 100, 300 and 1,000 nM for full dose experiments). […] Lysates were incubated for 45 min at 4 °C. Subsequently, lysates were incubated with Kinobeads ε (17.5 µl of settled beads) for 30 min at 4 °C. To assess the degree of protein depletion from the lysates by Kinobeads, the flow through of the DMSO control was recovered for a pulldown of pulldown experiment where the lysate was incubated a second time with fresh Kinobeads. Beads were washed in three steps with buffer containing 0.4%, 0.2% and no IGEPAL. Bound proteins were reduced with 50 mM DTT in 8 M Urea, 40 mM Tris-HCl pH 7.4 for 30 min at room temperature. After alkylation with 55 mM chloroacetamide, the urea concentration was reduced to 1–2 M and proteins were digested with trypsin. Acidified peptides were desalted and concentrated using SepPak tC18 µEluation plates (Waters). Samples were frozen, dried by vacuum centrifugation and stored at −20 °C.
(§3) Each kinase inhibitor was processed together with all DMSO controls of the same plate. Additionally, each search was supplemented with five high quality DMSO controls for consistent peptide identification and protein grouping. The resultant file (proteinGroups.txt) was used for subsequent filtering, normalization, data visualization and target annotation that was automatically performed by a data processing pipeline built in house that used R (including the ‘drc’ and ‘heatmap’ packages). First, reverse hits, potential contaminants and not quantified proteins in the DMSO control samples were discarded. Protein raw and label-free quantification intensities were normalized to the median DMSO control intensity to obtain relative residual binding intensities for each protein group at every inhibitor concentration and standard deviations of the DMSO control intensity were calculated. IC50 values were estimated based on the following equation IC50=I×100−inhibition/inhibition where [I] is the inhibitor concentration that was used for IC50 calculation and ‘inhibition’ the relative residual binding intensity. […]. Estimated Kdapp values were then calculated by multiplying the estimated IC50 values with a protein-dependent correction factor that was limited to a maximum value of one. The correction factor accounts for the depletion of a target protein from the lysate by Kinobeads. The depletion can be measured by the ratio of the amount of protein captured in two consecutive pulldowns of the same DMSO control lysate. In this study, correction factors were determined in separate experiments using the same lysate mixture and the same bead batch. Correction factors were set to the median of all correction factors. Targets of kinase inhibitors were annotated using the previously published random forest classifier. A training data set was annotated manually. […]

GSK3B = biological target: T3, GSK3B (Homo sapiens, UniProt P49841); assay: Kinobeads two-dose competition binding: GSK3B; conditions: for CATDS: target GSK3B
T3 construct: endogenous in cells

MAP3K1 = biological target: T4, MAP3K1 (Homo sapiens, UniProt Q13233); assay: Kinobeads two-dose competition binding: MAP3K1; conditions: for CATDS: target MAP3K1
T4 construct: endogenous in cells
Excerpt: as §1, §2, §3

MAP3K6 = biological target: T5, MAP3K6 (Homo sapiens, UniProt O95382); assay: Kinobeads two-dose competition binding: MAP3K6; conditions: for CATDS: target MAP3K6
T5 construct: endogenous in cells
T5 sequence (O95382 1-1288): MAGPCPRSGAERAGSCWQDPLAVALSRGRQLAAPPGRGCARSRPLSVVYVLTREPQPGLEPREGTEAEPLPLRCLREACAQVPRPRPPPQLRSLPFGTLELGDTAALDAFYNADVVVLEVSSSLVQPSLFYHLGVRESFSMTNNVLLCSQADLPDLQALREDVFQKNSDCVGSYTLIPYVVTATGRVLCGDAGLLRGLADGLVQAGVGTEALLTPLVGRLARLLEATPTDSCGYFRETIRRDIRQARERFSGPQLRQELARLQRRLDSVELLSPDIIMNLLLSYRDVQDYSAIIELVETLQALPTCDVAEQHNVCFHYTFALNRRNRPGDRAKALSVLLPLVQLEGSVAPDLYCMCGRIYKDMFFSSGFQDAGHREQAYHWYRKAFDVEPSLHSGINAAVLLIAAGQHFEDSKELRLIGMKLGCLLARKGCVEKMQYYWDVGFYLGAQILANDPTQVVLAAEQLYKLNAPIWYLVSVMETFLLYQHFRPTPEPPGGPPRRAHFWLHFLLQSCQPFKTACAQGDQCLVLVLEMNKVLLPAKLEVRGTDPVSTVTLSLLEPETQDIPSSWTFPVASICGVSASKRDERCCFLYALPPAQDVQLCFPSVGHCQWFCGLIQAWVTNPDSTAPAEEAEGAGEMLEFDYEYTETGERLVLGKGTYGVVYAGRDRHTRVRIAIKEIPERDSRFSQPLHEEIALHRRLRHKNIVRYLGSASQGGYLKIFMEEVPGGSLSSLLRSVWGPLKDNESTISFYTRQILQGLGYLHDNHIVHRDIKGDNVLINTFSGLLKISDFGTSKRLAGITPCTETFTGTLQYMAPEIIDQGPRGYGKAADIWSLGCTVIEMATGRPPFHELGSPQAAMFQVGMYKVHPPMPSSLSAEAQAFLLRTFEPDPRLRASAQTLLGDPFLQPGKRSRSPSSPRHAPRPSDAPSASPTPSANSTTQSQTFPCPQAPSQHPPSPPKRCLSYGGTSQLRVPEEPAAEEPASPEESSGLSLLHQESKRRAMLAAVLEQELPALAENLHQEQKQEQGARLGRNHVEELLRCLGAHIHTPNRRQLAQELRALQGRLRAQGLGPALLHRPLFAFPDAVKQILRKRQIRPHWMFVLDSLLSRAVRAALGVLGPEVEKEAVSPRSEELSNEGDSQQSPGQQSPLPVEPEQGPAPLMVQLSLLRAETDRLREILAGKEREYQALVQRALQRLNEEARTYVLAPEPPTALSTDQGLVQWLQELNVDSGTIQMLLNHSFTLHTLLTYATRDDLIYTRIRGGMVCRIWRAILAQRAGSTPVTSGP

ABL1 = ABL1 (Homo sapiens, UniProt P00519); assay: Kinobeads two-dose competition binding: ABL1; conditions: sheet CATDS matrix 2; Gene Name ABL1
ABL2 = biological target: T6, ABL2 (Homo sapiens, UniProt P42684); assay: Kinobeads two-dose competition binding: ABL2; conditions: sheet CATDS matrix 2; Gene Name ABL2
T6 construct: endogenous in cells
T6 sequence (P42684 whole entry): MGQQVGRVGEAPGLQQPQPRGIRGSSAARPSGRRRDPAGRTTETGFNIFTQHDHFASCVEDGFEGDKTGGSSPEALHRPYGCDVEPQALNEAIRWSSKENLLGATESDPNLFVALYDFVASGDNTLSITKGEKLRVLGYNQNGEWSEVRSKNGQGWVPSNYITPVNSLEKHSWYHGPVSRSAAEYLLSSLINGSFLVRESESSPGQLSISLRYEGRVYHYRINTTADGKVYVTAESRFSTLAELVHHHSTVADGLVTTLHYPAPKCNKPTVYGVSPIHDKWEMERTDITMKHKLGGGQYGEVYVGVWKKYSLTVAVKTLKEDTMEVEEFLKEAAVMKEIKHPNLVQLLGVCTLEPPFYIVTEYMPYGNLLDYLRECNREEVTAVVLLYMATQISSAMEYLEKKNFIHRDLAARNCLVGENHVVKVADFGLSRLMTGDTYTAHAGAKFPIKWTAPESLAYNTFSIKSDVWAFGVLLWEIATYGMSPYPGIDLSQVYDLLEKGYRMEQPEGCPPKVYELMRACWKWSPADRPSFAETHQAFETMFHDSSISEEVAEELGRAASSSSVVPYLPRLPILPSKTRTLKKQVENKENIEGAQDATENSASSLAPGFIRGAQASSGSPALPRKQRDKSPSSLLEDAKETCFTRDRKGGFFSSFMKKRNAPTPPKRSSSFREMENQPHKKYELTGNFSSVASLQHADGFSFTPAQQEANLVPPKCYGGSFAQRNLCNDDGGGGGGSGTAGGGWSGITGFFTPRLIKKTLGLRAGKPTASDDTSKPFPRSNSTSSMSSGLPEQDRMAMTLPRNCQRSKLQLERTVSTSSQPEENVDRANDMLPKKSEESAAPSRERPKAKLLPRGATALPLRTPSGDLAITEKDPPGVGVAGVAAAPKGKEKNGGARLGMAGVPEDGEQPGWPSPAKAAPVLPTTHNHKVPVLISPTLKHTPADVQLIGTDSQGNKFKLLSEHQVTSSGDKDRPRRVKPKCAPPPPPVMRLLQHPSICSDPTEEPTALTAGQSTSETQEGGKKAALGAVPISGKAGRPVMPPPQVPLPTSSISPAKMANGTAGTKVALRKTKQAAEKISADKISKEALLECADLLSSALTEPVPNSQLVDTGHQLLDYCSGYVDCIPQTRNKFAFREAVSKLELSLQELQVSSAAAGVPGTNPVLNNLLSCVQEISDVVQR

T3 sequence (P49841 whole entry): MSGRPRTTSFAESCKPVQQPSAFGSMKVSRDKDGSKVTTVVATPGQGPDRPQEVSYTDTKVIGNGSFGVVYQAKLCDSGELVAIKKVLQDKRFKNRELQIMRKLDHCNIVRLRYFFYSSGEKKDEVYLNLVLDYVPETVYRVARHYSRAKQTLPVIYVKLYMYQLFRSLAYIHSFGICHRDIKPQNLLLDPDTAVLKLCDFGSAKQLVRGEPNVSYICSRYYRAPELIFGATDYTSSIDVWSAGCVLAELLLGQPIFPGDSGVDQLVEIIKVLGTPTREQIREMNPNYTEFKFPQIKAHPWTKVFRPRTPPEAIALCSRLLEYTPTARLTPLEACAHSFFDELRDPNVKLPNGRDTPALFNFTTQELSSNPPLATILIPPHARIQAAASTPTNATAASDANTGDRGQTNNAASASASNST
Sequence of ABL1 (P00519 28-1130 limits assumed): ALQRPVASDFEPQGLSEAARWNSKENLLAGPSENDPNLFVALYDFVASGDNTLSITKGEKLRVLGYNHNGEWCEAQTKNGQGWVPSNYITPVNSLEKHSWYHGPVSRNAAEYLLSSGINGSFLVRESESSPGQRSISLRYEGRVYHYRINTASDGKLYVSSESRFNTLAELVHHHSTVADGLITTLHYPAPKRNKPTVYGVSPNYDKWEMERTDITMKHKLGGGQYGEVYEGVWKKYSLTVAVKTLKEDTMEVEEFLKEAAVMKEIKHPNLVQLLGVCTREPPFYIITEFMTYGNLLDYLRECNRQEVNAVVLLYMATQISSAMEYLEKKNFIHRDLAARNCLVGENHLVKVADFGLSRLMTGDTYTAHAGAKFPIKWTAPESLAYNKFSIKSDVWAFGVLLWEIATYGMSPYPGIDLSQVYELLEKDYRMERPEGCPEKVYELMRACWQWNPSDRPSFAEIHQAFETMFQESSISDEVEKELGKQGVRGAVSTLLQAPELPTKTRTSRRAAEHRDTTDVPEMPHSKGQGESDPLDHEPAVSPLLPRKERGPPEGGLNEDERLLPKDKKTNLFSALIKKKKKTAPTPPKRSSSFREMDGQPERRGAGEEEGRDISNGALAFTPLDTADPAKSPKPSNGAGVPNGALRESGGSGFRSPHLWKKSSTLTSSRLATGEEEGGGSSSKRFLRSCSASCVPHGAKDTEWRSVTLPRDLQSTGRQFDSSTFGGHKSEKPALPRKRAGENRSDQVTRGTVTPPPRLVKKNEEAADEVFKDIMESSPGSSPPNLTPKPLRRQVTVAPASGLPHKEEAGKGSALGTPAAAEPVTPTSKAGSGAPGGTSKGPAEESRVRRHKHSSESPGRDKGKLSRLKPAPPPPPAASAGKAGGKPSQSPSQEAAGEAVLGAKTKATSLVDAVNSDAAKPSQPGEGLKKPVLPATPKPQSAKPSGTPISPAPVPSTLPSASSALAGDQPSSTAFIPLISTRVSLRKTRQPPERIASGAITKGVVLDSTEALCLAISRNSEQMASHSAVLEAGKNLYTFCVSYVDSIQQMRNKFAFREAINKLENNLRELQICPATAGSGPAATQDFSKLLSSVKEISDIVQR
T1 sequence (P68400 whole entry): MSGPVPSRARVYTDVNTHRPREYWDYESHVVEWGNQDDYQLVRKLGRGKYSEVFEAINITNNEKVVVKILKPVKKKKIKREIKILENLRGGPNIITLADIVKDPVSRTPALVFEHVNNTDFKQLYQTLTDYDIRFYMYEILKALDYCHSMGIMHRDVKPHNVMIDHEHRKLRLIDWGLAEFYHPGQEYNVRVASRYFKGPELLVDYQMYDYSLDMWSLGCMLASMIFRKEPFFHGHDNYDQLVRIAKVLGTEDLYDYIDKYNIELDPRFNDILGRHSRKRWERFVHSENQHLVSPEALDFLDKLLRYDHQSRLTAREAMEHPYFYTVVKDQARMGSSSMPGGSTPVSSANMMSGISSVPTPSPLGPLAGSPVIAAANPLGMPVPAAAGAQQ
T4 sequence (Q13233 whole entry): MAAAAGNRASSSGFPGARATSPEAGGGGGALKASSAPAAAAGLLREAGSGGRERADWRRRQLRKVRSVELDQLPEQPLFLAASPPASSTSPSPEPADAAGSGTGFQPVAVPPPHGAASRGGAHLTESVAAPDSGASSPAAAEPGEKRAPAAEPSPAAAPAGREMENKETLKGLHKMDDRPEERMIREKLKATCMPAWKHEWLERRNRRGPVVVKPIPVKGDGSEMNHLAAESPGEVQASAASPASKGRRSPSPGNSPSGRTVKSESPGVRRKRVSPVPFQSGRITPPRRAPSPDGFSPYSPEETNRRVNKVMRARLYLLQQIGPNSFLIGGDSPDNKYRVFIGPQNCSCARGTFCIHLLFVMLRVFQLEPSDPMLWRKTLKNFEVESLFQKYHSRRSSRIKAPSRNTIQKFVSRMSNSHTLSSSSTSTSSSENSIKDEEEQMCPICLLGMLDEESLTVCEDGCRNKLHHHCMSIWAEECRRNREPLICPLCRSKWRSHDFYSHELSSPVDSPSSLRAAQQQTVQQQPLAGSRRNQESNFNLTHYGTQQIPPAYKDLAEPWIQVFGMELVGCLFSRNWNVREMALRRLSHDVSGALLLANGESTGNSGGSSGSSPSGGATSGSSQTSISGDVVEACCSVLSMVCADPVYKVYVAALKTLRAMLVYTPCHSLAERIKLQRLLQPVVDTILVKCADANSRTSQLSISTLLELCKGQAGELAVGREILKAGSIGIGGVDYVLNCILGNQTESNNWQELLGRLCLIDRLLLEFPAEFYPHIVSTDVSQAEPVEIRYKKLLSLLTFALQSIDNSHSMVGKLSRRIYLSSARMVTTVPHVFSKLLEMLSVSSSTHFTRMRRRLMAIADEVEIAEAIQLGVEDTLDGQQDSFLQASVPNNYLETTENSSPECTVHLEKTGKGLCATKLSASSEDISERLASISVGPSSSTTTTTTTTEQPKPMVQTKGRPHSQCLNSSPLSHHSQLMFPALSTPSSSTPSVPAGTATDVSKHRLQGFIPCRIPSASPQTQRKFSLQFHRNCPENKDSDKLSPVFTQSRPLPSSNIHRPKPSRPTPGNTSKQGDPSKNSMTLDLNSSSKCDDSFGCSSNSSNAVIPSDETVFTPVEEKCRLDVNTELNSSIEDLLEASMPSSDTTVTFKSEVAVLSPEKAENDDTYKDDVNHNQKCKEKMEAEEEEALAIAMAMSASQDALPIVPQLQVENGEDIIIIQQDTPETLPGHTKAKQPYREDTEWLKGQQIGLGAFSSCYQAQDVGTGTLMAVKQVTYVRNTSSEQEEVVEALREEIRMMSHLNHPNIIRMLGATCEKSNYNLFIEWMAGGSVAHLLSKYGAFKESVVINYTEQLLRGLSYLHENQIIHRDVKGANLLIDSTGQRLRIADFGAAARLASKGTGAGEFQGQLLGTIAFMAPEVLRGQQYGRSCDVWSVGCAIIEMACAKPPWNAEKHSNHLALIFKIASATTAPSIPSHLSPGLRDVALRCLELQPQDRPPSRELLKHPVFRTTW

Row | SMILES | CATDS (CSNK2A1 (CK2); target CSNK2A1;CSNK2A3) | CATDS (ATM) | CATDS (GSK3B) | CATDS (MAP3K1) | CATDS (MAP3K6) | CATDS (ABL1) | CATDS (ABL2) | further results
1 | Nc1ncnc2[nH]c(-c3ccccc3)nc12 [AH5015_KCGS] | 0 | 0 | 0.07826 | 0 | 0 | 0 | 0 | –
2 | CCN1CCN(Cc2ccc(Nc3ncc(F)c(-c4cc(F)c5nc(C)n(C(C)C)c5c4)n3)nc2)CC1 [Abemaciclib] | 0.05816 | 0 | – | 0 | 0 | 0 | 0 | –
3 | CN(C)C/C=C/C(=O)Nc1cc2c(Nc3ccc(F)c(Cl)c3)ncnc2cc1O[C@H]1CCOC1 [Afatinib] | – | 0 | 0 | 0 | 0 | 0 | – | –
4 | CCc1cc2c(cc1N1CCC(N3CCOCC3)CC1)C(C)(C)c1[nH]c3cc(C#N)ccc3c1C2=O [Alectinib] | 0 | 0 | 0 | 0 | 0 | 0 | 0 | –
5 | N#CC1(c2ccc(NC(=O)c3cccnc3NCc3ccncc3)cc2)CCCC1 [Apatinib] | 0 | 0 | 0 | 0 | 0 | 0 | 0 | –
6 | C#Cc1cccc(Nc2ncnc3cc(OC)c(OC4CCN(C)CC4)cc23)c1 [BI00007366] | – | – | – | – | – | 0 | 0 | –
7 | CC(C)N1CC(=O)N(C)c2cnc(Nc3cccc(S(=O)(=O)CCN4CCOCC4)c3)nc21 [BI00009348] | – | – | – | – | – | 0 | 0 | potency estimated from few doses (ATM; Kinobeads two-dose, Drugmatrix - all 2, read-out: apparent Kd ATM): 112 nM; potency estimated from few doses (GSK3B; Kinobeads two-dose, Drugmatrix - all 2, read-out: apparent Kd GSK3B): 783 nM; potency estimated from few doses (MAP3K1; Kinobeads two-dose, Drugmatrix - all 2, read-out: apparent Kd MAP3K1): > 1000 nM; potency estimated from few doses (MAP3K6; Kinobeads two-dose, Drugmatrix - all 2, read-out: apparent Kd MAP3K6): 698 nM
8 | COc1cc(Nc2ncc3c(C)nc(-c4cc5ccccc5[nH]4)n3n2)cc(OC)c1OC [GW869516X] | – | – | – | – | – | – | – | potency estimated from few doses (CSNK2A1 (CK2); Kinobeads two-dose screen (binding), read-out: Kdapp CK2 (CSNK2A1)): 78 nM; CATDSCK2 (CSNK2A1 (CK2); selectivity score from Kinobeads two-dose data): 1
9 | C[C@]12O[C@H](C[C@]1(O)CO)n1c3ccccc3c3c4c(c5c6ccccc6n2c5c31)CNC4=O [Lestaurtinib] | – | – | – | – | – | – | – | potency estimated from few doses (CSNK2A1 (CK2); read-out: Lestaurtinib Drugmatrix value, Gene Name CSNK2A1;CSNK2A3, target CSNK2A1;CSNK2A3, each column = one Lestaurtinib control replicate (batch_R1-R3)): 291 nM; potency estimated from few doses (GSK3B; read-out: Lestaurtinib Drugmatrix value, Gene Name GSK3B): 295 nM
